Data from patent US11779628B2, “Use of cell-permeable peptide inhibitors of the JNK signal transduction pathway for the treatment of various diseases” (Xigen Inflammation Ltd., priority 2014, dated 2023).
Where two headings read alike, the source gives them in different places. Non-standard residues stand in square brackets, D forms with d. No end group written: not given here.

Assays:
[1] = test system: patients after ocular surgery; experiment: Clinical Phase II, post-surgery intraocular inflammation: safety
Procedure: The criteria for evaluation of safety were: • a. Visual acuity by ETDRS method • b. Slit Lamp examination findings • c. The results of the ophthalmic fundus examination • d. Intra Ocular Pressure (IOP) measurements • e. Vital signs (blood pressure (BP), pulse rate (PR) and rhythm) • f. The results of the hematology and chemistry laboratory tests • g. The occurrence of Adverse Events • h. Presence (or not) of XG-102 in plasma 1 hour after the administration of study treatment in a subset of patients (approximately 30).
An AE is therefore any unfavorable and unintended sign, symptom or disease temporally associated with the use of a medicinal product, whether or not considered related to the medicinal product.
A Suspected Unexpected Serious Adverse Reaction (SUSAR) was defined as a suspected adverse reaction related to the treatment that is both unexpected (i.e. not consistent with the expected outcomes of the study treatment being administered) and serious.
Patients were analyzed as treated, i.e. according to the treatment which they received. The safety set was the primary analysis set for the safety analysis.
The present study was a double-blind study. All patients who were randomized and for whom the sub-conjunctival injection was started are included in the safety analysis by dose group. […] If the study treatment eye drops were stopped prematurely (i.e. before day 21), the patients concerned continued follow-up until day 28, in accordance with the study protocol.
Investigators assessed (in a blinded manner) the relationship of each reported AE to any of the study treatments. An event was considered to be related to study treatment if the Investigator ticked either ‘possible’ or ‘probable’ as the reply to this question.

[2] = test system: Sprague-Dawley albino rats, light-induced photoreceptor cell death; assay type: in vivo; settings: PBN
Text: The aim of this study was to investigate the dose effect of XG-102 on light-induced photoreceptor cell death.
50 male Rat (Sprague-Dawley (albinos rat); approximately 8 weeks; 200-250 g (on ordering)) have been used. Rats are most commonly used in this experimental model. Animals were examined before study, and particular attention was paid to the eyes. Animals were held in observation for 2 weeks following their arrival. Animals were observed daily for signs of illness. Only healthy animals with no ocular abnormalities were accepted for use in experiments. Animals were housed individually in standard cages (420×270×190 mm)^ii. All animals were housed under identical environmental conditions. The temperature was held at 22±2° C. and the relative humidity at 55±10%. Rooms were continuously ventilated (15 times per hour). A cycle of 12 hours light (200-300 lx) and 12 hours darkness was automatically controlled. These parameters were continuously controlled and recorded. Throughout the study, animals had free access to food and water. They were fed a standard dry pellet diet. Tap water was available ad libitum from plastic bottles.
Forty-eight (48) rats were randomly divided into six (6) groups of eight (8) animals each. Test item (XG-102: 30 mg/ml, 3 mg/ml, and 0.3 mg/ml) and vehicle (0.9% NaCl) were administered by intravitreal injection in right eyes the day before induction. The reference (Phenyl-N-test-Butylnitrone (PBN) (50 mg/kg)) and vehicle were intraperitoneally injected 30 min before induction then, 3 times during 12 hours of light exposition, then once after induction. Animals were placed in constant light (7000 lux) for 24 h. Electroretinograms (ERG) were recorded before light treatment and on days 9, 16 and 23 after induction. Eyes were then taken for histology and outer nuclear layer (ONL) thickness assessment. The table below summarizes the allocation of animals in treatment groups:
For the intravitreal injection animals were anesthetized by intramuscular injection of a mixture of xylazine/ketamine. Test item (5 μl) and vehicle (5 μl) were injected in the right eye. The injection was performed under an operating microscope in the supratemporal area at pars plana using a 33G-needle mounted on a 50 μl Hamilton. The filled syringe was mounted into the UltraMicroPump III to achieve accurate injection in microliter range. Reference and vehicle were injected intraperitoneally at a dose volume of 2.5 ml/kg using a 30G-needle mounted on a 1 ml-syringe.
Light Exposure: The rats that had been dark-adapted overnight were exposed for 24 hours to a continuous white fluorescent light (7000 Ix) in clear plastic cages. Each cage contained one rat. After exposure, the rats returned to rearing cyclic light conditions.
ERG was recorded before induction and 7, 14 and 21 days after cessation of exposure (Days 9, 16 and 23) on right eyes of dark-adapted and anesthetized animals. The latency times (for a- and b-wave) and the a-wave and b-wave amplitudes were measured for each ERG; the latency times were expressed as millisecond and the a-wave and b-wave as a percentage of the baseline value obtained before light exposure. 15 min before measurement 10 μl Mydriaticum® (0.5% tropicamide) were instilled for pupillary dilatation.
ERG Parameters: • Color: white maximum. • Maximum intensity: 2.6 cd·s/m^2 (0 dB); Duration 0.24 ms; number of flash: 1. • Filter: 50 Hz. • Impedence Threshold: 90 kΩ.
Measurement of the ONL Thickness: After ERG testing, animal was euthanized by an overdose of pentobarbital and the right eyes were enucleated, fixed and embedded in paraffin. Sections (5 μm thick) were performed along the vertical meridian and stained with Trichrome-Masson. The vertical meridian included the optic nerve.
Group mean values and standard deviation were calculated. A statistical Mann and Whitney test was used to evaluate the differences between pair-wise groups. For comparison between time-point into each vehicle groups, a Friedman test was used. […]

[3] = test system: female Sprague-Dawley rats, CYP-induced cystitis; experiment: CYP-induced acute cystitis, intravenous treatment; assay type: in vivo, rat; settings: XG-102 2 mg/kg i.v. or ibuprofen 10 mg/kg i.v., 24 h post-CYP
Procedure: (§1) This preclinical model is well-used to test therapeutic approaches for the treatment of interstitial cystitis/painful bladder syndrome (IC/PBS).
(§2) Animals were acclimatized to the laboratory conditions for at least 3 days before the start of any experiments. The animals were allocated to the following four experimental groups (n=10 animals per group):
(§3) To induce acute cystitis, a single i.p. injection of CYP at a dose of 150 mg/kg in a final volume of 5 mL/kg was performed. Control rats received physiological saline under the same experimental conditions as CYP (final volume of 5 mL/kg, i.p.).
(§4) On the day of each experiment, weight of rats was recorded.
Standardized conditions including fixed time-of-day (a.m. to minimize the potential circadian variations in the behaviours responses) and single-experimenter testing of all animals were applied to minimize variability behavior-based pain testing. Visceral pain including allodynia and hyperalgesia was evaluated by applying to the lower abdomen, close to the urinary bladder, a set of 8 calibrated von Frey filaments of increasing forces (1, 2, 4, 6, 8, 10, 26 and 60 g) with an interstimulus interval of 5 seconds. Prior testing, the abdominal area designed for mechanical stimulation of each animal was shaved. […]

[4] = test system: female Sprague-Dawley rats, CYP-induced cystitis; experiment: CYP-induced acute cystitis, intravesical treatment; assay type: in vivo, rat; settings: 50 mg/mL i.ves., 24 h post-CYP
Procedure: as §1, §2, §3, §4
Standardized conditions including fixed time-of-day (a.m. to minimize the potential circadian variations in the behaviours responses) and single-experimenter testing of all animals were applied to minimize variability behavior-based pain testing. Visceral pain including allodynia and hyperalgesia was evaluated by applying to the lower abdomen, close to the urinary bladder, a set of 8 calibrated von Frey filaments of increasing forces (1, 2, 4, 6, 8, 10, 26 and 60 g) with an interstimulus interval of 5 seconds. Prior testing, the abdominal area designed for mechanical stimulation of each animal was shaved. Animals were then placed on a raised wire mesh floor under individual transparent Plexiglas box and acclimatized for at least 30 minutes before starting the von Frey test. Filaments were then applied 1-2 seconds through the mesh floor with enough strength to cause the filament to slightly bend. Each filament was tested 3 times. Care was taken to stimulate different areas within the lower abdominal region in the vicinity of the urinary bladder to avoid desensitization.
Urinary bladders were rapidly collected and cleaned from lipoid tissue. […] Finally, wall thickness was measured using a digital caliper by placing the bladder wall between the two outside jaws.

TC-3 cell cultures = experiment: Cellular import of fluorescein-labeled TAT and TAT-IB1(s) peptides; assay type: cell-based; settings: fluorescein-labeled peptide 1 μM
Procedure: The ability of the L- and D-enantiomeric forms of TAT and TAT-IB1(s) peptides (“TAT-IB peptides”) to enter cells was evaluated. L-TAT, D-TAT, L-TAT-IB1(s), and D-TAT-IB1(s) peptides [SEQ ID NOs: 5, 6, 9 and 12, respectively] were labeled by N-terminal addition of a glycine residue conjugated to fluorescein. Labeled peptides (1 μM) were added to TC-3 cell cultures, which were maintained as described in Example 3. At predetermined times cells were washed with PBS and fixed for five minutes in ice-cold methanol-acetone (1:1) before being examined under a fluorescence microscope. Fluorescein-labeled BSA (1 μM, 12 moles/mole BSA) was used as a control.
Little to no signal was present at 48 hours.
Fluorescent signals from these all-D retro-inverso peptides were still very strong 1 week later, and the signal was only slightly diminished at 2 weeks post treatment.

JNK = settings: Dickens et al. 1997; cited from earlier work
TC-3 cells = experiment: IL-1 induced pancreatic beta-cell death; assay type: cell-based; settings: single addition 1 μM, two days with IL-1
Procedure: Inhibition of IL-1 induced pancreatic beta-cell death by the D-TAT-IB1(s) peptide was analyzed. […] Apoptotic cells were then counted after two days of incubation with IL-1 by use of Propidium Iodide and Hoechst 33342 nuclear staining. A minimum of 1,000 cells were counted for each experiment. Standard Error of the Means (SEM) are indicated, n=5. […] Long term inhibition of IL-1P induced cell-death by the D-TAT-IB1 peptide was also analyzed. […] Apoptotic cells were then counted after 15 days of incubation with IL-1 by use of propidium iodide and Hoechst 33342 nuclear staining. […] A minimum of 1.000 cells were counted for each experiment.

[5] = Dexamethasone group, blinded assessment

C[C@@H]1C[C@H]2[C@@H]3CCC4=CC(=O)C=C[C@]4(C)[C@@]3(F)[C@@H](O)C[C@]2(C)[C@@]1(O)C(=O)CO [Dexamethasone, reference compound]
Reported AEs by severity: Mild ([1]; Dexamethasone dose group): 42 (76.4%) number of events (% of reported events) | Reported AEs by severity: Moderate ([1]; Dexamethasone dose group): 9 (16.4%) number of events (% of reported events) | Reported AEs by severity: Severe ([1]; Dexamethasone dose group): 4 (7.3%) number of events (% of reported events) | AEs considered by the Investigator to be related to Dexamethasone [1, 5]: 2 (3.6%) Total # events (%) | AEs considered by the Investigator to be related to XG-102 [1, 5]: 13 (23.64%) Total # events (%) | Intraocular pressure increased, patients ([1]; dexamethasone): 14% | events in SOC EYE DISORDERS ([1]; dexamethasone): 30 events | patients with SAEs ([1]; dexamethasone): 2 patients | patients with events in SOC EYE DISORDERS ([1]; dexamethasone): 16 (32%)

CC(C)(C)[N+]([O-])=Cc1ccccc1 [PBN, Phenyl-N-tert-Butylnitrone]
recovery of the b-wave (% of baseline) ([2]; Day 9): 100% | recovery of the b-wave (% of baseline) ([2]; Day 16): 103.6% | decrease of ONL thickness vs untreated eyes ([2]; Day 23): 16% | recovery of the a-wave (% of baseline) ([2]; Day 23): 76.2% | recovery of the b-wave (% of baseline) ([2]; Day 23): 102.4%

CC(C)Cc1ccc(C(C)C(=O)O)cc1 (stereo not shown) [ibuprofen]
nociceptive scores [3]: significantly decrease nociceptive scores | nociceptive threshold [3]: Nociceptive threshold was significantly increased by ibuprofen treatment | haemorrhage scores [4]: no significant change was observed regarding haemorrhage scores | nociceptive scores [4]: significant decrease of nociceptive scores | urinary bladder wall thickness [4]: a significant decrease was observed in urinary bladder wall thickness | nociceptive threshold ([4]; vs vehicle): Nociceptive threshold was significantly increased by ibuprofen treatment

GRKKRRQRRR (Description of sequence Peptide L-TAT (see Table 1))
entry into cells (TC-3 cell cultures): efficiently and rapidly (less than five minutes) entered cells

GRKKRRQRRRPPRPKRPTTLNLFPQVPRSQD [L-TAT-IB1(s)]
entry into cells (TC-3 cell cultures): efficiently and rapidly (less than five minutes) entered cells

IPSPSVEEPHKHRPTTLRLTTLGAQDS (Description of sequence Peptide IB2-long (see Table 1))
efficiency in binding JNK relative to c-Jun or ATF2 (JNK): approximately 100 fold

PGTGCGDTYRPKRPTTLNLFPQVPRSQDT (Description of sequence peptide IB1-long (see Table 1))
efficiency in binding JNK relative to c-Jun or ATF2 (JNK): approximately 100 fold

TDQSRPVQPFLNLTTPRKPRYTDPPRRRQRRKKRG ([dT][dD][dQ][dS][dR][dP][dV][dQ][dP][dF][dL][dN][dL][dT][dT][dP][dR][dK][dP][dR][dY][dT][dD][dP][dP][dR][dR][dR][dQ][dR][dR][dK][dK][dR]G) [D-TAT-IB1]
IL-1 induced apoptosis (TC-3 cells): decreased IL-1 induced apoptosis to a similar extent as L-TAT-IB peptides
